Experimental data published in US10343985B2, “Cryopyrin inhibitors for preventing and treating inflammation” (VIRGINIA COMMONWEALTH UNIVERSITY, priority 2013, dated 2019).
Like-named read-outs stand apart in the source and are kept apart here.

What was measured:
healthy mice = experiment: Toxic effects and glucose levels in healthy control mice
NLRP3 inflammasome [1] = target: T1, NLRP3 inflammasome (Mus musculus, UniProt Q8R4B8); experiment: Cell death in HL-1 cardiomyocytes (trypan blue exclusion); assay type: cell-based, murine; design: immortalized adult murine cardiomyocytes (HL-1) cells were used; endogenous in cells; host or cells: HL-1 murine cardiomyocytes
T1 sequence (Q8R4B8 whole entry): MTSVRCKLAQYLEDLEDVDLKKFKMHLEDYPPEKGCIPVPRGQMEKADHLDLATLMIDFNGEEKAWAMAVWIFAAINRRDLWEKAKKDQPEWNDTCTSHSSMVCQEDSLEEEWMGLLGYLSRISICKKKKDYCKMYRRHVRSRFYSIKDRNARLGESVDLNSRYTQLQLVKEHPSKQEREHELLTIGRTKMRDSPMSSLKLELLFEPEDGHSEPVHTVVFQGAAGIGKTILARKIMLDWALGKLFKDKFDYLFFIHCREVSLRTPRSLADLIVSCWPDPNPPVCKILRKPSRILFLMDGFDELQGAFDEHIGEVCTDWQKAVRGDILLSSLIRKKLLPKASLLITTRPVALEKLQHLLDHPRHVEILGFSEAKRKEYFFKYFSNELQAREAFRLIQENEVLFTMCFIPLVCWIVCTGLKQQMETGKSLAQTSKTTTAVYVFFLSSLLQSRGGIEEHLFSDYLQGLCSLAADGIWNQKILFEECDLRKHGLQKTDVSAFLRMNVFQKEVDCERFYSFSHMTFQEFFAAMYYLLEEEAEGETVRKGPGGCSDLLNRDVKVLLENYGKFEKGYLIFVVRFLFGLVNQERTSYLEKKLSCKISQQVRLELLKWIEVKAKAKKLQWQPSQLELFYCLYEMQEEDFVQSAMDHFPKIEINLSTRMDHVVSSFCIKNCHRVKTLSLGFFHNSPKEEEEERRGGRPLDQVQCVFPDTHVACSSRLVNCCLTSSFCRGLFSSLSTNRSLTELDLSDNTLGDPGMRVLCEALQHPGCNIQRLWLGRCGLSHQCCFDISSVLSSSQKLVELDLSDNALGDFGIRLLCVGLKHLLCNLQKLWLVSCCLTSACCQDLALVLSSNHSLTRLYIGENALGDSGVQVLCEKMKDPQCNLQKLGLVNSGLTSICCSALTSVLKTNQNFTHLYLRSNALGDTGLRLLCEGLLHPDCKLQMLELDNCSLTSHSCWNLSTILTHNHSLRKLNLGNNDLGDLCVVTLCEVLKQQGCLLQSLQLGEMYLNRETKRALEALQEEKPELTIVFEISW

NLRP3 inflammasome [2] = target: T1, NLRP3 inflammasome; experiment: Caspase-1 enzymatic activity in HL-1 cardiomyocytes; assay type: cell-based, murine; design: immortalized adult murine cardiomyocytes (HL-1) cells were used; endogenous in cells; host or cells: HL-1 murine cardiomyocytes; conditions: LPS/ATP, compound 400 μM
Experimental: In separate experiments, immortalized adult murine cardiomyocytes (HL-1) cells were used. […] Formation of the NLRP3 inflammasome in HL-1 cells was determined and quantified by ASC aggregation (immunohistochemistry), caspase-1 activity (enzymatic activity) and cell death (trypan blue exclusion method), as previously described. […] As readout for the NLRP3 inflammasome activation, caspase-1 enzymatic activity and cell death were evaluated. Briefly, HL-1 cells (2×10^6 cells) were plated in 90-mm dishes and NLRP3 inflammasome formation was induced as described above. After treatments, to measure caspase-1 activity, the cells were washed, harvested, and frozen. The pellet was resuspended using RIPA buffer (Sigma-Aldrich) containing a mixture of protease inhibitors (Sigma-Aldrich) and centrifuged at 16,200×g for 20 min. The supernatants were collected and the protein contents were quantified using the Bradford assay. The caspase-1 activity was determined by measuring the fluorescence produced by the cleavage of a fluorogenic substrate. The fluorescence was reported as arbitrary fluorescence units produced by 1 μg of sample per min (fluorescence/μg/min).

NLRP3 inflammasome [3] = target: T1, NLRP3 inflammasome; experiment: Acute myocardial infarction, single i.p. dose at reperfusion, infarct size (TTC); assay type: in vivo; design: from tissue; host or cells: live mice: heart (infarction and doxorubicin models) and peritoneal cavity (zymosan A); conditions: experiment with G1; 100 mg/kg i.p. at reperfusion; 24 hours; vs vehicle
Experimental: Experimental AMI was induced in mice by transient myocardial ischemia for 30 min followed by 24 hours of reperfusion. […] The heart were explanted at 24 hours and processed for the measurement of infarct size using triphenyl tetrazolium chloride (TTC staining). The areas of infarcted tissue, the risk zone, and the whole LV areas are determined by computer morphometry using Image Pro® Plus 6.0 software (Media Cybernetics, Silver Spring, Md.).
As described above, experimental AMI was induced by transient myocardial ischemia for 30 min followed by 24 hours of reperfusion.

NLRP3 inflammasome [4] = target: NLRP3 inflammasome (Homo sapiens, UniProt Q96P20); conditions: literature reports, cited from earlier work
Sequence of NLRP3 inflammasome (Homo sapiens, UniProt Q96P20) (Q96P20 whole entry): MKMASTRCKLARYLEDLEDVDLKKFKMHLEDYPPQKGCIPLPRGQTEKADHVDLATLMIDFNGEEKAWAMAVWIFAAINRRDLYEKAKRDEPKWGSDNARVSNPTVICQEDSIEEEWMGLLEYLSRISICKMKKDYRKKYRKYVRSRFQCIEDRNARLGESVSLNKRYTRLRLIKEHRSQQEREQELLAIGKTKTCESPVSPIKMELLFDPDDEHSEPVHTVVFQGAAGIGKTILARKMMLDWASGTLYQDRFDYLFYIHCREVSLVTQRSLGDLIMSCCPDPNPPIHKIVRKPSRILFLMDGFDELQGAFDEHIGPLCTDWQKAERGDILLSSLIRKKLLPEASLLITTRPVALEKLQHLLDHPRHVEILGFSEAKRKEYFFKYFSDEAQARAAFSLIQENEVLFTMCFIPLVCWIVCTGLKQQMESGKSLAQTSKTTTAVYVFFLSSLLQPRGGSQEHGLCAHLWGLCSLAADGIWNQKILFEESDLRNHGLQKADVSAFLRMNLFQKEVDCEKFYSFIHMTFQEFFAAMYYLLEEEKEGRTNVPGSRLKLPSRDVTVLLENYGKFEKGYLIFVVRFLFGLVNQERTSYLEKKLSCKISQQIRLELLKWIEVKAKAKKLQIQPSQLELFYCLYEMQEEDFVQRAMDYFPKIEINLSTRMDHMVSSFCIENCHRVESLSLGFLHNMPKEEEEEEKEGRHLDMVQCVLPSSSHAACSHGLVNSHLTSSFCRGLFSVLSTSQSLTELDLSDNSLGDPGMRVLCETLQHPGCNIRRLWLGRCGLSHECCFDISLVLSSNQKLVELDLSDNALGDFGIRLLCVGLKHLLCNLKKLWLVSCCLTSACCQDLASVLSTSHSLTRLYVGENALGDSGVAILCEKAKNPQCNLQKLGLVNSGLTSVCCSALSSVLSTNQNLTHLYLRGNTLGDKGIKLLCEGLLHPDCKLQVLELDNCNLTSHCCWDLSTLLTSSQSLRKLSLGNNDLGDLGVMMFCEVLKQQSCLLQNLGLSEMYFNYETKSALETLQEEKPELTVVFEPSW

insulin = conditions: Lamkanfi et al. 2009; cited from earlier work

COc1ccc(Cl)cc1C(=O)NCCc1ccc(S(=O)(=O)NC(=O)NC2CCCCC2)cc1 [glyburide]
lethal within 3 days, share of mice (healthy mice; 100 mg/kg every 6 hours for 3 doses): 50%
glucose levels 2 hours after a single dose (healthy mice; 16673-34-0 100 mg/kg, (equimolar)): significant reduction
lethal in 3 days, share of mice (healthy mice; daily doses of 500 mg/kg): 100%
mortality in healthy mice (healthy mice; every 6 hours for 24 hours, 16673-34-0 100 mg/kg): 50%
plasma glucose levels (healthy mice; healthy mice, single and repeated injections, glyburide effect as early as 2 hours): significant reduction

COc1ccc(Cl)cc1C(=O)NCCc1ccccc1 [Compound 6 in FIG. 3, 5-chloro-2-methoxy-N-(2-phenylethyl)-benzamide]
cell death (NLRP3 inflammasome [1]): failed
cell death (NLRP3 inflammasome [1]; HL-1, LPS/ATP, compound 400 μM): no inhibitory effects
caspase-1 activity (NLRP3 inflammasome [2]): failed to inhibit
caspase-1 activity (NLRP3 inflammasome [2]; listed as intermediate compound): no inhibitory effects

COc1ccc(Cl)cc1C(=O)NCCc1ccc(S(=O)(=O)Cl)cc1 [Compound G1, 4-(2-[(5-chloro-2-methoxyphenyl)formamido]ethyl)benzene-1-sulfonyl chloride]
infarct size (% area at risk) (NLRP3 inflammasome [3]): no effect
inhibition of cryopyrin / NLRP3 inflammasome in vitro (NLRP3 inflammasome [4]): inhibited
inhibition of cryopyrin / NLRP3 inflammasome in vitro (NLRP3 inflammasome [4]; listed as compound 1): retain some of the anti-inflammatory activity of glyburide
effect on insulin (insulin): no effect
